Source: patent publication EP0096006A2, “3-(Ureidocyclohexylamino)-propane-1,2-diol derivatives, process for their preparation, pharmaceutical preparations containing these compounds and their therapeutical use” (CIBA-GEIGY AG, priority 1982, dated 1983)

Key:
normotensiven Kaninchen = assay: Intraocular pressure reduction in normotensive rabbits, topical application (anti-glaucoma effect); type: in vivo
Experimental: Die Anticlaucoma-Wirkung der erfindungsgemässen Verbindungen ist an der intraokularen Druckverminderung abzulesen, die an Säugetieren, z.B. bei normotensiven Kaninchen, im wesentlichen nach der von D.E. Potter und J.M. Rowland in Experimental Eye Research 27, 615-625, (1978) beschriebenen Methodik nachgewiesen werden kann. Die intraokulare Druckverminderung wird wie folgt bestimmt: 2 x 50 µl einer Lösung der Testverbindung in sterilisiertem Wasser von unterschiedlicher Konzentration werden bei männlichen, neuseeländischen Albinokaninchen, die 3-4 kg wiegen, jeweils auf ein Auge appliziert, und 2 x 50 µl des Trägermaterials werden zur Kontrolle auf das kontralaterale Auge appliziert. Der intraokulare Druck (in mm Hg) in jedem Auge wird direkt vor der Behandlung tonometrisch gemessen, und dann 1,2 bzw. 3 Stunden nach der Verabreichung. Es wird der Unterschied des intraokularen Druckes zwischen behandeltem Auge und Kontrollauge bestimmt.
Beispielsweise zeigen die erfindungsgemässen Verbindungen der Beispiele 1 und 2a, bei einer Konzentration von etwa 20 bzw.

[1] = target: β-adrenergischen Rezeptoren; assay: β-receptor binding test in vitro: inhibition of 3H-dihydroalprenolol binding to brain membrane preparation; parameters: species or system Kalb; conditions: calf brain caudate membranes; 10 min at 37°C; determined graphically; read-out: IC50 (Hemmung der spezifischen Bindung von 1,0 nM 3H-Dihydroalprenolol)
Text: Die β-adrenergische Rezeptorbindungseigenschaften, welche β-adrenergische regulierende, z.B. blockierende Wirkung der genannten neuen Verbindungen anzeigen, werden in einem Test der β-Rezeptorbindung in vitro nach einer Modifikation des Verfahrens bestimmt, wie es in Life Sciences 17, 993 (1975) beschrieben ist.
^3H-Dihydroalprenolol wird spezifisch von Gehirnmembran-Präparaten gebunden und diese Wirkung wird durch bekannte Agonisten und Antagonisten von β-adrenergischen Rezeptoren gehemmt.
Beim Bindungstest werden 2 ml-Proben der Suspension eines Membranpräparates (welches etwa 20 mg Kalbshirn-Caudaten entspricht) in eisgekühlte Reagenzgläser gegeben, welche ^3H-Dihydroalprenolol mit oder ohne Testverbindung, frisch gelöst in 0,1% Ascorbinsäure, enthalten. Die Endkonzentration von ^3H-Dihydroalprenolol ist 1,0 nM. Die Testverbindungen werden innerhalb einer weiten Konzentrationsreihe geprüft. Die Reagenzgläser werden 10 Minuten bei 37°C inkubiert, und die Suspensionen dann sofort unter Vakuum durch Fiberglasfilter filtriert. Die Filter werden mit 15 ml kalter 50 mM Tris-HCi (pH 7,9 bei 25°C) gewaschen, zusammen mit 12 ml Szintillationslösung in Szintillationsampullen gegeben, zunächst 90 Minuten geschüttelt und dann mit dem Zählrohr auf Radioaktivität untersucht.
Die IC50 Werte (welche die Konzentration der Testverbindungen angeben, die nötig ist, um die spezifische Bindung der 1,0 nM ^3H-Dihydrcal- prenolol-Lösung um 50% zu verringern) werden graphisch bestimmt.
Die erfindungsgemässen Verbindungen hemmen die β-Rezeptorbildung des Dihydroalprenolols mit IC50 Werten von […] oder darunter. Beispielsweise weisen die Verbindungen der Beispiele 1, 2a, 3b und 3c IC50-Werte von etwa […] auf.

[2] = tested on: spontan hypertensiven Ratten; assay: Systolic blood pressure and heart rate in conscious spontaneously hypertensive rats (tail sphygmomanometry), oral dosing; type: in vivo; conditions: for Abnahme des Bludrucks: second day, 2 hours after dosing; for antihypertensive Wirkung / bradycardische (d.h. die Herzfrequenz herabsetzende) Wirkung: low doses of 10 mg/kg or below
Text: Die in vivo blutdrucksenkende Wirkung wird entweder direkt mit einem Katheter, der z.B. in die fumurale Arterie eines Hundes eingeführt ist, oder indirekt durch Sphygmomanometrie am Rattenschwanz, und einem Uebertragungsinstrument registriert. Der Bludruck wird vor und nach der Verabreichung des Wirkstoffes in mmHg bestimmt.
So kann die antihypertensive Wirkung und die Reduktion der Herzfrequenz bei spontan hypertensiven Ratten nachgewiesen werden, indem man indirekt durch Sphygmomanometrie am Rattenschwanz den systolischen Druck misst. Wache Ratten werden einzeln in Käfige gesperrt, welche sich in einem angenehm warmen Raum befinden. Nachdem Kontrollwerte für Blutdruck und Herzfrequenz gemessen words-n sind, werden die Testverbindungen oral einmal täglich an 2 oder 4 aufeinanderfolgenden Tagen verabreicht. Der Blutdruck wird gewöhnlich 24 Stunden nach der ersten Dosis und dann jeweils 2,0, 4,0 und 24 Stunden nach jeder täglichen Dosis bestimmt, und die Wirkung mit der bei solchen Ratten verglichen, die mit dem Trägermaterial behandelt worden sind.
Gemäss der vorher beschriebenen Methode werden wache Ratten einzeln in Käfige gestellt. Zuerst werden die Kontrollwerte des Blutdrucks ermittelt und dann die einzelnen Testverbindungen einmal täglich, an zwei aufeinanderfolgenden Tagen, oral verabreicht.

[3] = tested on: renal hypertensiven Hunden; assay: Arterial pressure and heart rate in conscious renal hypertensive dogs, oral dosing; type: in vivo, Hunde; conditions: oral dose 10 mg/kg
Text: Die antihypertensive und bradycardische Wirkung wird ebenso an wachen, chronisch hypertensiven Hunden untersucht; die Hypertension wird dabei durch eine Schwächung der Nierenfunktion erzeugt. Der arterielle Druck wird durch direkte perkutane Punktion der femuralen Arterie, unter Verwendung einer Nadel, die an ein Uebertragungsinstrument angeschlossen ist, registriert. Nach der Aufnahme von Kontrolldaten werden die Hunde oral einmal täglich, 4 Tage lang, mit Kapseln, welche die Testverbindung enthalten, behandelt. Der Blutdruck und die Herzfrequenz werden jeweils 1,5, 3, 6 und 24 Stunden nach der täglichen Dosis bestimmt und die Ergebnisse mit den vor der Behandlung erhaltenen Kontrollwerten verglichen.

[4] = 50 mg/kg p.o. once daily for 2 days

SMILES	IC50 [1] [nM]	Abnahme des Bludrucks [2, 4] [mm Hg]	antihypertensive Wirkung [2]	bradycardische (d.h. die Herzfrequenz herabsetzende) Wirkung [2]	also measured
C=CCOc1ccccc1OCC(O)CN[C@H]1CC[C@@H](N2CCNC2=O)CC1 (mixture of isomers) [Beispiel 1, cis-1-(4-[3-(o-Allyloxyphenoxy)-2-hydroxypropylamino]-cyclohexyl)-2-imidazolidinon-hemifumarat]	~80	-79.3	deutliche	deutliche	Verminderung des intraokularen Druckes (normotensiven Kaninchen; concentration about 20 nM): deutliche Verminderung; Herzfrequenz [3]: herabsetzen; mittlerer arterieller Druck [3]: ununterbrochene Verringerung
C#CCOc1ccccc1OCC(O)CN[C@H]1CC[C@H](N2CCNC2=O)CC1 (mixture of isomers) [Beispiel 3c]	~4	-30.0			
O=C1NCCN1[C@H]1CC[C@@H](NCC(O)COc2ccccc2OCC2CC2)CC1 (mixture of isomers) [Beispiel 3m]			deutliche	deutliche	Herzfrequenz [3]: herabsetzen; mittlerer arterieller Druck [3]: ununterbrochene Verringerung
O=C1NCCN1[C@H]1CC[C@@H](NC[C@H](O)COc2ccccc2OCC2CC2)CC1 [Beispiel 2a, (S)-cis-1-(4-[3-(o-Cyclopropylmethoxyphenoxy)-2-hydroxypropylamino]-cyclohexyl)-2-imidazolidinon-hemifumarat]	~5		deutliche	deutliche	Verminderung des intraokularen Druckes (normotensiven Kaninchen; concentration about 6,4 nM): deutliche Verminderung; Abnahme des Bludrucks ([2]; 30 mg/kg p.o. once daily for 2 days): -75.5 mm Hg
COc1ccccc1OCC(O)CN[C@H]1CC[C@@H](N2CCNC2=O)CC1 (stereo partly drawn) [Beispiel 3a]		-39.3			
C#CCOc1cccc(OCC(O)CN[C@H]2CC[C@@H](N3CCNC3=O)CC2)c1 (stereo partly drawn) [Beispiel 3d]		-52.3			
N#Cc1ccccc1OCC(O)CN[C@H]1CC[C@@H](N2CCNC2=O)CC1 (stereo partly drawn) [Beispiel 3f]		-11.0			
N#Cc1ccccc1OCC(O)CN[C@H]1CC[C@H](N2CCNC2=O)CC1 (stereo partly drawn) [Beispiel 3g]		-33.0			
O=C1NCCN1[C@H]1CC[C@@H](NCC(O)COc2ccccc2-n2cccc2)CC1 (stereo partly drawn) [Beispiel 3h]		-68.0			
COCCc1ccc(OCC(O)CN[C@H]2CC[C@@H](N3CCNC3=O)CC2)cc1 (stereo partly drawn) [Beispiel 3k]		-17.6			
